pIC50: −log10 of the molar value. Read-outs that look alike come from different tables or passages of the source.
What was measured:
P. falciparum Dd2 = test: SYBR green I asexual blood stage proliferation assay (96 h); format: cell-based, Plasmodium falciparum; conditions: Plasmodium falciparum, DD2, 11-pt dose response, 96hr
[1] = system: P. falciparum Dd2 (PfLuc) line expressing firefly luciferase, asexual blood stage; test: microbe, parasite or virus in culture; format: cell-based, Plasmodium falciparum; conditions: Plasmodium falciparum; for IC50: DD2, read-out: CDD P. falciparum Luciferase ABS 11-pt Reconfirmation Dose Response (48hr): IC50 (μM)
[2] = Sybr Green I, read-out: CDD P. falciparum Sybr Green I ABS 11-pt Reconfirmation Dose Response (96hr): IC50
[3] = Sybr Green I, read-out: CDD P. falciparum Sybr Green I ABS 11-pt Reconfirmation Dose Response (96hr): Maximum inhibition (%)
[4] = DD2, 8-pt dose response, 96hr, read-out: CDD P. falciparum Luciferase ABS 8-pt Reconfirmation Dose Response (96hr): IC50
[5] = DD2, 8-pt dose response, 96hr, read-out: CDD P. falciparum Luciferase ABS 8-pt Reconfirmation Dose Response (96hr): Maximum inhibition (%)
[6] = DD2, 11-pt dose response, 48hr, read-out: CDD P. falciparum Luciferase ABS 11-pt Reconfirmation Dose Response (48hr): Maximum inhibition (%)
[7] = DD2, 11-pt dose response, 96hr, read-out: CDD P. falciparum Luciferase ABS 11-pt Reconfirmation Dose Response (96hr): IC50
[8] = DD2, 11-pt dose response, 96hr, read-out: CDD P. falciparum Luciferase ABS 11-pt Reconfirmation Dose Response (96hr): Maximum inhibition (%)
[9] = read-out: P. falciparum Sybr Green I ABS 11-pt Reconfirmation Dose Response (96hr): IC50
[10] = read-out: P. falciparum Sybr Green I ABS 11-pt Reconfirmation Dose Response (96hr): Maximum inhibition (%)
[11] = DD2, read-out: P. falciparum Luciferase ABS 11-pt Reconfirmation Dose Response (48hr): IC50, 11-pt dose response, 48hr
[12] = DD2, 8-pt dose response, 96hr, read-out: P. falciparum Luciferase ABS 8-pt Reconfirmation Dose Response (96hr): IC50
[13] = DD2, 8-pt dose response, 96hr, read-out: P. falciparum Luciferase ABS 8-pt Reconfirmation Dose Response (96hr): Maximum inhibition (%)
[14] = DD2, 11-pt dose response, 48hr, read-out: P. falciparum Luciferase ABS 11-pt Reconfirmation Dose Response (48hr): Maximum inhibition (%)
[15] = DD2, 11-pt dose response, 96hr, read-out: P. falciparum Luciferase ABS 11-pt Reconfirmation Dose Response (96hr): IC50
[16] = DD2, 11-pt dose response, 96hr, read-out: P. falciparum Luciferase ABS 11-pt Reconfirmation Dose Response (96hr): Maximum inhibition (%)
[17] = 96 h incubation, Dd2 luciferase, read-out: 96 hour Pfluc IC50

Cc1nc[nH]c1CN(C)CC1CCCN(CCc2ccc(Cl)cc2)C1 (centres unmarked) [DDD01257555]
pIC50 (P. falciparum Dd2; [2]): 6.02 | Emax (P. falciparum Dd2; [3]): 98.8% | IC50 ([1]; 11-pt dose response, 48hr): 1.62 µM | pIC50 [1, 4]: 6.19 | Emax [1, 5]: 93.5% | Emax [1, 6]: 99.6% | pIC50 [1, 7]: 6.33 | Emax [1, 8]: 99.9%

Nc1nc2c(c(N3CCCC(c4nnc5ccccn45)C3)n1)CCNC2 (centres unmarked) [DDD01254485]
pIC50 (P. falciparum Dd2; [2]): < 4.90 | Emax (P. falciparum Dd2; [3]): 52.8% | IC50 ([1]; 11-pt dose response, 48hr): > 12.5 µM | pIC50 [1, 4]: 6.74 | Emax [1, 5]: 90.3% | Emax [1, 6]: 46.1% | pIC50 [1, 7]: 6.51 | Emax [1, 8]: 95.2%

NCC1[C@H]2CN(Cc3cccc(Cl)c3)C[C@@H]12 (some centres unmarked) [DDD01029240]
pIC50 (P. falciparum Dd2; [2]): 5.72 | Emax (P. falciparum Dd2; [3]): 90.7% | IC50 ([1]; 11-pt dose response, 48hr): 2.68 µM | pIC50 [1, 4]: 6.26 | Emax [1, 5]: 93.8% | Emax [1, 6]: 85% | pIC50 [1, 7]: 5.92 | Emax [1, 8]: 99%

Cc1ccc(C2(CN(C)Cc3sccc3C)CCNCC2)nc1 [DDD01252463]
pIC50 (P. falciparum Dd2; [2]): < 4.90 | Emax (P. falciparum Dd2; [3]): 57.2% | IC50 ([1]; 11-pt dose response, 48hr): > 12.5 µM | pIC50 [1, 4]: 6.14 | Emax [1, 5]: 78.8% | Emax [1, 6]: 41.3% | pIC50 [1, 7]: 5.80 | Emax [1, 8]: 81.7%

CN(Cc1ccccc1-n1cccn1)C[C@@H]1CCCN2CCCC[C@H]12 [DDD01246904]
pIC50 (P. falciparum Dd2; [9]): 5.07 | Emax (P. falciparum Dd2; [10]): 72.9% | pIC50 [1, 11]: < 4.90 | pIC50 [1, 12]: 5.73 | Emax [1, 13]: 85.8% | Emax [1, 14]: 53.8% | pIC50 [1, 15]: 5.43 | Emax [1, 16]: 73.6%

c1ccc(C2CN(C3CC3)CC3(CCN(Cc4cscn4)CC3)C2)cc1 (centres unmarked) [DDD01253863]
pIC50 (P. falciparum Dd2; [9]): < 5.38 | pIC50 [1, 11]: 5.34 | pIC50 [1, 12]: 5.94 | Emax [1, 13]: 78.8% | Emax [1, 14]: 85% | pIC50 [1, 15]: 5.46 | Emax [1, 16]: 96.3%

NCC1Cc2cc(-c3nccc(N4CCC(O)CC4)n3)cc(Cl)c2O1 (centres unmarked) [DDD01245918]
pIC50 (P. falciparum Dd2; [2]): 5.38 | Emax (P. falciparum Dd2; [3]): 83.9% | IC50 ([1]; 11-pt dose response, 48hr): 2.64 µM | pIC50 [1, 4]: 6.26 | Emax [1, 5]: 92% | Emax [1, 6]: 75.2% | pIC50 [1, 7]: 5.71 | Emax [1, 8]: 96.7%

CN1CCN(S(=O)(=O)c2ccc(Cl)c(Cl)c2)c2cnccc21 [DDD01077309]
pIC50 (P. falciparum Dd2; [2]): 5.24 | Emax (P. falciparum Dd2; [3]): 82.8% | IC50 ([1]; 11-pt dose response, 48hr): 6.77 µM | pIC50 [1, 4]: 6.24 | Emax [1, 5]: 92.2% | Emax [1, 6]: 78.7% | pIC50 [1, 7]: 5.84 | Emax [1, 8]: 95.5%

Cc1cc(C2CCCN(CC(=O)Nc3nc4c(s3)CCC4)C2)n[nH]1 (centres unmarked) [DDD01079504]
pIC50 (P. falciparum Dd2; [2]): 6.75 | Emax (P. falciparum Dd2; [3]): 71.3% | IC50 ([1]; 11-pt dose response, 48hr): 0.456 µM | pIC50 [1, 4]: 6.55 | Emax [1, 5]: 81.5% | Emax [1, 6]: 84.9% | pIC50 [1, 7]: 6.41 | Emax [1, 8]: 97.8%

Fc1ccccc1C1(CNC2CCOC3(CCOCC3)C2)CCCC1 (centres unmarked) [DDD01251139]
pIC50 (P. falciparum Dd2; [2]): 6.23 | Emax (P. falciparum Dd2; [3]): 71.8% | IC50 ([1]; 11-pt dose response, 48hr): 8.87 µM | pIC50 [1, 4]: 6.02 | Emax [1, 5]: 86.2% | Emax [1, 6]: 69.5% | pIC50 [1, 7]: 5.84 | Emax [1, 8]: 89.3%

CCOc1cccc(CN2CCCC(Nc3ccc(F)cc3)C2)c1O (centres unmarked) [DDD01252745]
pIC50 (P. falciparum Dd2; [2]): 5.73 | Emax (P. falciparum Dd2; [3]): 98.6% | IC50 ([1]; 11-pt dose response, 48hr): 1.43 µM | pIC50 [1, 4]: 6.22 | Emax [1, 5]: 93.4% | Emax [1, 6]: 96.3% | pIC50 [1, 7]: 6.15 | Emax [1, 8]: 99.7%

Clc1ccccc1C1(c2ccnc(CC3CC3)n2)CCNCC1 [DDD01257764]
pIC50 (P. falciparum Dd2; [2]): 6.37 | Emax (P. falciparum Dd2; [3]): 70.6% | IC50 ([1]; 11-pt dose response, 48hr): 3.74 µM | pIC50 [1, 4]: 6.57 | Emax [1, 5]: 92.2% | Emax [1, 6]: 90.6% | pIC50 [1, 7]: 6.24 | Emax [1, 8]: 98% | pIC50 [1, 17]: 6.24

Cc1ccccc1CNCC(O)c1ccc(OC(C)C)cc1 (centres unmarked) [DDD01076008]
pIC50 (P. falciparum Dd2; [2]): 5.42 | IC50 ([1]; 11-pt dose response, 48hr): 3.39 µM | pIC50 [1, 4]: 6.05 | Emax [1, 6]: 93.9% | pIC50 [1, 7]: 5.83 | Emax [1, 8]: 99.7%

CC(C)(C)CNCC1(O)CCCN(Cc2ccccc2F)C1=O (centres unmarked) [DDD01250810]
pIC50 (P. falciparum Dd2; [2]): 5.37 | Emax (P. falciparum Dd2; [3]): 64.2% | IC50 ([1]; 11-pt dose response, 48hr): > 12.5 µM | pIC50 [1, 4]: 5.96 | Emax [1, 5]: 82.3% | Emax [1, 6]: 55.3% | pIC50 [1, 7]: 5.24 | Emax [1, 8]: 80.8%

CN1CCN(c2ccccc2NC(=O)NCCc2ccccc2)CC1 [DDD01076697]
pIC50 (P. falciparum Dd2; [9]): < 4.90 | Emax (P. falciparum Dd2; [10]): 52.5% | pIC50 [1, 11]: < 4.90 | pIC50 [1, 12]: 5.94 | Emax [1, 13]: 82.8% | Emax [1, 14]: 65.5% | pIC50 [1, 15]: < 5.86 | Emax [1, 16]: 89.4%

CC(NCC1CCN(CCO)CC1)c1ccc(F)c(Cl)c1 (centres unmarked) [DDD01073649]
pIC50 (P. falciparum Dd2; [2]): 5.72 | Emax (P. falciparum Dd2; [3]): 91.9% | IC50 ([1]; 11-pt dose response, 48hr): 3.46 µM | pIC50 [1, 4]: 5.98 | Emax [1, 5]: 87% | Emax [1, 6]: 94.4% | pIC50 [1, 7]: 6.10 | Emax [1, 8]: 99.5% | pIC50 [1, 17]: 6.10

CC(C)CNc1cc(-c2c[nH]nc2C2CCN(C(=O)C3CC3)C2)ccn1 (centres unmarked) [DDD01057306]
pIC50 (P. falciparum Dd2; [2]): 5.30 | Emax (P. falciparum Dd2; [3]): 50.9% | IC50 ([1]; 11-pt dose response, 48hr): 5.71 µM | pIC50 [1, 4]: 6.55 | Emax [1, 5]: 95.6% | pIC50 [1, 7]: 5.71 | Emax [1, 8]: 96.6%

Fc1cccc(CN2CCC(c3cc4ncccc4cn3)CC2)c1F [DDD01058754]
pIC50 (P. falciparum Dd2; [2]): 6.51 | Emax (P. falciparum Dd2; [3]): 86.9% | IC50 ([1]; 11-pt dose response, 48hr): 1.06 µM | pIC50 [1, 4]: 6.11 | Emax [1, 5]: 94.4% | Emax [1, 6]: 95.6% | pIC50 [1, 7]: 6.24 | Emax [1, 8]: 99.9%

Cc1cccc2[nH]c(-c3cn(C4CCNCC4)nn3)nc12 [DDD01250141]
pIC50 (P. falciparum Dd2; [2]): 5.83 | Emax (P. falciparum Dd2; [3]): 72.3% | IC50 ([1]; 11-pt dose response, 48hr): 3.07 µM | pIC50 [1, 4]: 6.23 | Emax [1, 5]: 94.4% | Emax [1, 6]: 66.5% | pIC50 [1, 7]: 5.67 | Emax [1, 8]: 97.2%

CN[C@@H]1CCC[C@@H](Oc2ccccc2Oc2ccc(C)cc2)[C@@H]1O [DDD01056673]
pIC50 (P. falciparum Dd2; [2]): 5.63 | Emax (P. falciparum Dd2; [3]): 99.2% | IC50 ([1]; 11-pt dose response, 48hr): 1.83 µM | pIC50 [1, 4]: 6.28 | Emax [1, 5]: 96% | Emax [1, 6]: 97% | pIC50 [1, 7]: 6.20 | Emax [1, 8]: 99.7%

— paper PMC7155171, “Probing the Open Global Health Chemical Diversity Library for Multistage-Active Starting Points for Next-Generation Antimalarials” (ACS Infectious Diseases, 2020)
